Test results as given in patent publication US20020037931A1, “Substituted nitrated catechols, their use in the treatment of some central and peripheral nervous system disorders and pharmaceutical compositions containing them” (priority 2000, published 2002).

Key:
[1] = tested on: COMT; test: Ex vivo brain COMT activity after administration by gastric tube; type: in vivo, rat; settings: for COMT activity (% of control), Brain: rat brain homogenate; for inhibitory profile brain COMT versus liver COMT (in words) / inhibition of brain COMT (in words): after oral administration; for inhibitory profile brain COMT versus liver COMT (in words) / access to the brain / activity in the periphery (in words) / inhibition of brain COMT (in words): rat; for inhibitory profile brain COMT versus liver COMT (in words): brain compared with liver; for access to the brain / activity in the periphery (in words): conclusion from ex vivo COMT inhibition
[2] = tested on: COMT; test: Ex vivo liver COMT activity after administration by gastric tube; type: in vivo; settings: rat liver homogenate
[3] = molecular target: T1, COMT (Homo sapiens, UniProt P21964); test: COMT activity in intact SK-N-SH cell monolayers; type: cell-based; settings: SK-N-SH cells; test compound 100 nM; means±SEM, n=4-8
T1 construct: COMT activity was evaluated in cell monolayers by the ability to methylate adrenaline; host or cells: SK-N-SH cells
T1 sequence (P21964 1-271): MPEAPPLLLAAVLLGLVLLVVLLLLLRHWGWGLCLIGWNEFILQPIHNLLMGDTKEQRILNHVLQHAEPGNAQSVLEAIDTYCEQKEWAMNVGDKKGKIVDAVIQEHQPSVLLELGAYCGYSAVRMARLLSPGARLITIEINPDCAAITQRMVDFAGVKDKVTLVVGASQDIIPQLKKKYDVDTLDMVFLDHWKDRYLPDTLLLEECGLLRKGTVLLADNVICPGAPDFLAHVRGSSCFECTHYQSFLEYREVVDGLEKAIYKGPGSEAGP

[4] = tested on: COMT; test: COMT activity (methylation of adrenaline to metanephrine) in rat liver homogenates; type: biochemical; settings: rat liver homogenate; test compound 3 μM; means±SEM, n=4-8
[5] = tested on: COMT; test: COMT activity (methylation of adrenaline to metanephrine) in rat brain homogenates; type: biochemical; settings: rat brain homogenate; test compound 100 nM; means±SEM, n=4-8
[6] = 0.5 h after administration by gastric tube
[7] = 1 h after administration by gastric tube
[8] = 3 h after administration by gastric tube
[9] = 6 h after administration by gastric tube
[10] = 9 h after administration by gastric tube

Compound	COMT activity (% of control), Brain [1, 6]	COMT activity (% of control), Brain [1, 7]	COMT activity (% of control), Brain [1, 8]	COMT activity (% of control), Brain [1, 9]	COMT activity (% of control), Brain [1, 10]	inhibitory profile brain COMT versus liver COMT (in words) [1]	access to the brain / activity in the periphery (in words) [1]	COMT activity (% of control), Liver [2, 6]	COMT activity (% of control), Liver [2, 7]	COMT activity (% of control), Liver [2, 8]	COMT activity (% of control), Liver [2, 9]	COMT activity (% of control), Liver [2, 10]	COMT activity, SK-N-SH (% of control) [3]	COMT activity, Liver (% of control) [4]	COMT activity, Brain (% of control) [5]	inhibition of brain COMT (in words) [1]
O=C(c1ccccc1)c1ccc(O)c(O)c1[N+](=O)[O-] [Compound 5, (3,4-Dihydroxy-2-nitro-phenyl)-phenyl-methanone]	12.2 ± 0.3 % of control	25.5 ± 1.8 % of control	52.2 ± 2.3 % of control	92.5 ± 7.9 % of control	102.3 % of control	much more potent as a peripheral COMT inhibitor than in brain	limited access to the brain	2.1 ± 0.5 % of control	26.5 ± 1.3 % of control	52.1 ± 2.6 % of control	79.0 ± 14.8 % of control	108.9 % of control	2 ± 0 % of control	0.3 ± 0.1 % of control	6 ± 1 % of control	
CCCC(=O)Oc1ccc(C(=O)c2ccccc2)c([N+](=O)[O-])c1OC(=O)CCC [Compound 20, Butyric Acid, 3-Benzoyl-6-butyryloxy-2-nitro-phenyl Ester]	25.8 ± 4.3 % of control	31.4 ± 3.0 % of control	49.4 ± 5.3 % of control	81.3 ± 3.7 % of control	72.8 % of control	much more potent upon brain COMT than liver COMT	enhanced access to the brain and limited activity in the periphery	57.9 ± 4.7 % of control	64.4 ± 5.0 % of control	66.5 ± 7.8 % of control	94.5 ± 0.3 % of control	110.1 % of control	0 ± 0 % of control	0.6 ± 0.0 % of control	3 ± 0 % of control	potent inhibitors of brain COMT
O=C(Cc1ccccc1)c1ccc(O)c(O)c1[N+](=O)[O-] [Compound 24, 1-(3,4-Dihydroxy-2-nitro-phenyl)-2-phenyl ethanone]	18.7 ± 1.6 % of control	18.7 ± 0.6 % of control	37.0 ± 5.9 % of control	64.8 ± 3.7 % of control	98.4 % of control		limited access to the brain	6.2 ± 0.8 % of control	8.4 ± 1.6 % of control	61.9 ± 10.8 % of control	91.6 ± 8.8 % of control	125.9 % of control	24 ± 1 % of control	0.7 ± 0.0 % of control	7 ± 1 % of control	potent inhibitors of brain COMT
CCCC(=O)Oc1ccc(C(=O)CCCc2ccccc2)c([N+](=O)[O-])c1OC(C)=O [Compound 50, Acetic acid, 6-butyryloxy-2-nitro-3-(4-phenyl-butyryl)-phenyl ester]													2 ± 1 % of control	0.6 ± 0.5 % of control	0 ± 0 % of control	
CCOC(=O)Oc1ccc(C(=O)CCCc2ccccc2)c([N+](=O)[O-])c1OC(=O)OCC [Compound 51, Carbonic acid, 2-ethoxycarbonyloxy-3-nitro-4-(4-phenyl-butyryl)-phenyl ester ethyl ester]													1 ± 0 % of control	0.6 ± 0.3 % of control	0 ± 0 % of control	
